Reference: patent US5681846A (priority 1995, dated 1997)
Entries after “also recorded” stand apart in the source; their conditions may differ. Where two headings read alike, the source gives them in different places.

How the values were obtained:
[1] = Chemical stability of paclitaxel in infusion solutions by HPLC; type: physicochemical; conditions: 0.1 and 1 mg/mL; D5W and 0.9% NaCl
Procedure: The liquid chromatograph consisted of a multisolvent delivery pump (Waters Chromatography, Milford, Mass.), a programmable multiple-wavelength ultraviolet light detector (Waters), a WISP autosampler,(Waters) and a HPLC analytical column (Vydac, Hesperia, Calif.) (250×4.6 mm, 5 μm particle size). The system was controlled and integrated by a personal computer (NEC, Boxborough, Mass.). The mobile phase consisted of 53% acetonitrile in water. The flow rate was 1.5 ml/min and detection was performed at 254 nm. […] Sample aliquots were filtered through 5 μm filter needle.
Precision expressed as percent relative standard deviation was 0.76%. Calibration curves were constructed from a linear plot of peak area versus concentration (0,025 to 0.15 mg/mL). […] The intra-day and inter-day coefficients of variation were 1.4% and 2.0%, respectively.
Aliquots were removed from each bag initially and after 1, 3, 5, and 7 days and stored in 2-ml sterile vials at -70° C. […] Duplicate HPLC determinations were performed on the aliquots from each test solution.

lymphoma, breast cancer = conditions: cited from earlier work
tubulin = conditions: cited from earlier work
[2] = Visual examination of paclitaxel test solutions (physical compatibility); type: physicochemical; design: key to Visual observation: --: Light blue hazy solution free of particulate matter; conditions: for Visual observation, all samples: days 1 and 3
Procedure: (§1) Aliquots were removed from each bag initially and after 1, 3, 5, and 7 days and stored in 2-ml sterile vials at -70° C. Grossly precipitated solutions were assayed after 31 days of storage. Duplicate HPLC determinations were performed on the aliquots from each test solution.
(§2) Physical compatibility was evaluated by visual examination and turbidimetric quantification. […] The tubes and caps were triple-washed in high-performance liquid chromatography-grade water and rinsed exteriorly with ethanol. To minimize the effects of scratches and imperfections in the glass, a thin layer of silicone oil was applied to the exterior of the culture tubes.
Visual examination of the samples was performed with the unaided eye in normal laboratory fluorescent light. Samples with no obvious visual incompatibility were further examined using a Tyndall beam (high-intensitymonodirectional light source)(Dolan-Jenner, Woburn, Mass.). The test tubes were illuminated from below and viewed at a 90° angle against a dark background to enhance the visibility of small particles.
(§3) Visual inspections and turbidimetric assessments were performed initially and after 1, 3, 5, 7, 14, and 31 days of storage at each temperature protected from light.

cell replication = conditions: in vitro; cited from earlier work
[3] = Turbidimetric assessment of paclitaxel test solutions; type: physicochemical; conditions: during the study
Procedure: as §1, §2
Turbidimetric assessments of the normally hazy paclitaxel solutions were made using a color-correcting turbidimeter (Hatch, Loveland, Colo.). The turbidimeter was calibrated in the manner described previously (Trissel et al., 1992). Triplicate determinations were made for each sample; the turbidimeter was allowed to return to zero between determinations. Incompatibility has been defined as an increase in turbidity of 0.5 nephelometric turbidity unit (NTU) or more (Trissel et al., 1993).
as §3

[4] = type: physicochemical; conditions: for Precipitation Time (earliest among triplicate samples): Cremophor EL 8.3%
Excerpt: Physical stability testing of extended stability formulations has been evaluated for the effects of changing alcohol concentration on precipitation times in infusion solutions.
In the 15 to 20% range, the time to precipitation varied from about 9 to 14 days in most samples. […] Within the 15 to 20% group, however, the time to precipitation was variable and not linearly related to alcohol content.
^a Cremophor ® EL concentration held constant at 8.3%, the same a
^b Earliest precipitation among triplicate samples.

[5] = cited from earlier work

CC(=O)O[C@H]1C(=O)[C@@]2(C)[C@H]([C@H](OC(=O)c3ccccc3)[C@]3(O)C[C@H](OC(=O)[C@H](O)[C@@H](NC(=O)c4ccccc4)c4ccccc4)C(C)=C1C3(C)C)[C@]1(OC(C)=O)CO[C@@H]1C[C@@H]2O [paclitaxel]
decomposition products on HPLC chromatograms [1]: No decomposition products appeared on the HPLC chromatograms
activity in clinical trials (lymphoma, breast cancer): has shown activity against lymphoma, breast cancer, and possibly other tumors
tubulin polymerization (tubulin): markedly enhances all aspects of tubulin polymerization; initiation and elongation are more rapid
precipitation observed visually / by Tyndall beam ([2]; 0.1 and 1 mg/mL, D5W and 0.9% NaCl): all samples were initially free of particulate matter but had paclitaxel's normal haze; also recorded: Large amounts of white flocculent precipitate appeared after 31 days of storage in many of the samples and after 14 days in a few samples; also recorded: Two samples had small amounts of crystalline precipitate within five days of storage; also recorded: Most samples had crystalline precipitation within a week
chemical stability and physical compatibility time ([2]; 0.1 and 1 mg/mL, D5W and 0.9% NaCl, 4, 22, 32 °C): All samples remained compatible in both infusion solutions for at least three days; also recorded: chemically stable and physically compatible for three days
Visual observation ([2]; 0.9% NaCl, 0.1 mg/mL, 4 °C, day 0): --
Visual observation ([2]; 0.9% NaCl, 0.1 mg/mL, 4 °C, day 7): Tiny crystals
Visual observation ([2]; 0.9% NaCl, 0.1 mg/mL, 22 °C, day 0): --
Visual observation ([2]; 0.9% NaCl, 0.1 mg/mL, 22 °C, day 5): --
Visual observation ([2]; 0.9% NaCl, 0.1 mg/mL, 22 °C, day 7): Tiny crystals
Visual observation ([2]; 0.9% NaCl, 0.1 mg/mL, 32 °C, day 0): --
Visual observation ([2]; 0.9% NaCl, 0.1 mg/mL, 32 °C, day 5): --
Visual observation ([2]; 0.9% NaCl, 0.1 mg/mL, 32 °C, day 7): Tiny crystals
Visual observation ([2]; 0.9% NaCl, 1 mg/mL, 4 °C, day 0): --
Visual observation ([2]; 0.9% NaCl, 1 mg/mL, 4 °C, day 5): --
Visual observation ([2]; 0.9% NaCl, 1 mg/mL, 4 °C, day 7): Tiny crystals
Visual observation ([2]; 0.9% NaCl, 1 mg/mL, 22 °C, day 0): --
Visual observation ([2]; 0.9% NaCl, 1 mg/mL, 22 °C, day 5): --
Visual observation ([2]; 0.9% NaCl, 1 mg/mL, 22 °C, day 7): Tiny crystals
Visual observation ([2]; 0.9% NaCl, 1 mg/mL, 32 °C, day 0): --
Visual observation ([2]; 0.9% NaCl, 1 mg/mL, 32 °C, day 5): --
Visual observation ([2]; 0.9% NaCl, 1 mg/mL, 32 °C, day 7): Tiny crystals
Visual observation ([2]; 0.9% NaCl, 1 mg/mL, 32 °C, day 14): Tiny crystals
Visual observation, all samples ([2]; 0.9% NaCl): particulatefree
Visual observation ([2]; 5% dextrose, 0.1 mg/mL, 4 °C, day 0): --
Visual observation ([2]; 5% dextrose, 0.1 mg/mL, 4 °C, day 5): --
Visual observation ([2]; 5% dextrose, 0.1 mg/mL, 4 °C, day 7): --
Visual observation ([2]; 5% dextrose, 0.1 mg/mL, 4 °C, day 14): --
Visual observation ([2]; 5% dextrose, 0.1 mg/mL, 22 °C, day 0): --
Visual observation ([2]; 5% dextrose, 0.1 mg/mL, 22 °C, day 5): --
Visual observation ([2]; 5% dextrose, 0.1 mg/mL, 32 °C, day 0): --
Visual observation ([2]; 5% dextrose, 0.1 mg/mL, 32 °C, day 5): --
Visual observation ([2]; 5% dextrose, 1 mg/mL, 4 °C, day 0): --
Visual observation ([2]; 5% dextrose, 1 mg/mL, 22 °C, day 0): --
Visual observation ([2]; 5% dextrose, 1 mg/mL, 22 °C, day 5): --
Visual observation ([2]; 5% dextrose, 1 mg/mL, 32 °C, day 0): --
Visual observation ([2]; 5% dextrose, 1 mg/mL, 32 °C, day 5): --
Visual observation, all samples ([2]; 5% dextrose): particulatefree
inhibition of cell replication (cell replication): potent inhibitor of cell replication in vitro
change in turbidity [3]: did not result in any change during the study except for samples with noticeable precipitation
Precipitation Time (earliest among triplicate samples) ([4]; 1 mg/mL in D5W, alcohol 15%): 14 days
Precipitation Time (earliest among triplicate samples) ([4]; 1 mg/mL in D5W, alcohol 16%): 12 days
Precipitation Time (earliest among triplicate samples) ([4]; 1 mg/mL in D5W, alcohol 17%): 10 days
Precipitation Time (earliest among triplicate samples) ([4]; 1 mg/mL in D5W, alcohol 18%): 12 days
Precipitation Time (earliest among triplicate samples) ([4]; 1 mg/mL in D5W, alcohol 19%): 9 days
Precipitation Time (earliest among triplicate samples) ([4]; 1 mg/mL in D5W, alcohol 20%): 9 days
gross precipitation ([4]; 1 mg/mL in D5W, alcohol 25%): 21 days
Precipitation Time (earliest among triplicate samples) ([4]; 1 mg/mL in D5W, alcohol 25%): 14 days
earliest microprecipitation ([4]; 1 mg/mL in D5W, alcohol 25%, one sample): 14 days
Precipitation Time (earliest among triplicate samples) ([4]; 1 mg/mL in D5W, alcohol 30%): > 60 days
storage time without precipitation or microcrystals ([4]; 1 mg/mL in D5W, alcohol 30 and 50%, any sample): > 60 days
Precipitation Time (earliest among triplicate samples) ([4]; 1 mg/mL in D5W, alcohol 50%): > 60 days
precipitation among triplicate samples ([4]; alcohol 19% and 20% (footnote c)): One sample precipitated at 9 days, 2 samples at 14 days or more.
precipitation among triplicate samples ([4]; alcohol 25% (footnote d)): One sample did not precipitated after 60 days.
precipitation among triplicate samples ([4]; alcohol 30% and 50% (footnote e)): All three samples were still in solution after 60 days.
appearance after dilution in infusion fluids ([5]; clinical formulation diluted in intravenous infusion fluids): slight haze and, occasionally, a few minute particles
physical stability in aqueous solutions ([5]; clinical formulation): physically unstable, and in aqueous solutions exhibits the formation of paclitaxel precipitate
